Read-outs that look alike come from different tables or passages of the source.
Legend:
Assay type in all cases: in vivo
Kochia (Kochia scoparia) [1] = test: Test A preemergence; details: Bassia scoparia, pre-emergence, 240 h, preemergence, 0 to 100 scale where 0 is no effect and 100 is complete control, read-out: Kochia plant response rating; for pest or weed control at 125 g/ha: 125 g ai/ha, visual injury rating, approximately 10 d; for pest or weed control at 500 g/ha: 500 g ai/ha
In short: (§1)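 Visual injury scores from 0, no effect, to 100, complete control, were assigned versus untreated controls roughly 10 d after treatment in the greenhouse. Test chemicals, formulated with surfactant in a non-phytotoxic solvent, were applied to planted seeds as a preemergence soil spray or postemergence to one- to two-leaf plants 2 to 10 cm tall, in loam–sand soil.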

[2] = test system: barnyardgrass (Echinochloa crus-galli); test: Test A preemergence; details: Echinochloa crus-galli, pre-emergence, 240 h, preemergence, 0 to 100 scale where 0 is no effect and 100 is complete control, read-out: Barnyardgrass plant response rating; for pest or weed control at 125 g/ha: 125 g ai/ha, visual injury rating, approximately 10 d; for pest or weed control at 500 g/ha: 500 g ai/ha
In short: as §1

[3] = test system: giant foxtail (Setaria faberii); test: Test A preemergence; details: Setaria faberi, pre-emergence, 240 h, preemergence, 0 to 100 scale where 0 is no effect and 100 is complete control, read-out: Foxtail, Giant plant response rating; for pest or weed control at 125 g/ha: 125 g ai/ha, visual injury rating, approximately 10 d; for pest or weed control at 500 g/ha: 500 g ai/ha
In short: as §1

[4] = test system: pigweed (Amaranthus retroflexus); test: Test A preemergence; details: Amaranthus retroflexus, pre-emergence, 240 h, preemergence, 0 to 100 scale where 0 is no effect and 100 is complete control, read-out: Pigweed plant response rating; for pest or weed control at 125 g/ha: 125 g ai/ha, visual injury rating, approximately 10 d; for pest or weed control at 500 g/ha: 500 g ai/ha
[5] = test system: ragweed (common ragweed, Ambrosia elatior); test: Test A preemergence; details: Ambrosia artemisiifolia, pre-emergence, 240 h, preemergence, 0 to 100 scale where 0 is no effect and 100 is complete control, read-out: Ragweed plant response rating; for pest or weed control at 125 g/ha: 125 g ai/ha, visual injury rating, approximately 10 d; for pest or weed control at 500 g/ha: 500 g ai/ha
In short: as §1

[6] = test system: ryegrass, Italian (Italian ryegrass, Lolium multiflorum); test: Test A preemergence; details: Lolium multiflorum, pre-emergence, 240 h, preemergence, 0 to 100 scale where 0 is no effect and 100 is complete control, read-out: Ryegrass, Italian plant response rating; for pest or weed control at 125 g/ha: 125 g ai/ha, visual injury rating, approximately 10 d; for pest or weed control at 500 g/ha: 500 g ai/ha
In short: as §1

[7] = test system: Galium (catchweed bedstraw, Galium aparine); test: Test A postemergence; details: Galium, post-emergence, 240 h; for pest or weed control at 125 g/ha: 125 g ai/ha, visual injury vs untreated controls after approx. 10 d, 0 = no effect, 100 = complete control, read-out: Galium plant response rating (0 to 100 scale); for pest or weed control at 500 g/ha: 500 g ai/ha
In short: as §1

Kochia (Kochia scoparia) [8] = test: Test A postemergence; details: Bassia scoparia, post-emergence, 240 h; for pest or weed control at 125 g/ha: 125 g ai/ha, visual injury vs untreated controls after approx. 10 d, 0 = no effect, 100 = complete control, read-out: Kochia plant response rating (0 to 100 scale); for pest or weed control at 500 g/ha: 500 g ai/ha
In short: as §1

corn (Zea mays) = test: Test A postemergence; details: Zea mays, post-emergence, 240 h; for plant injury at 125 g/ha: 125 g ai/ha, visual injury vs untreated controls after approx. 10 d, 0 = no effect, 100 = complete control, read-out: Corn plant response rating (0 to 100 scale)
In short: as §1

[9] = test system: pigweed (Amaranthus retroflexus); test: Test A postemergence; details: Amaranthus retroflexus, post-emergence, 240 h; for pest or weed control at 125 g/ha: 125 g ai/ha, visual injury vs untreated controls after approx. 10 d, 0 = no effect, 100 = complete control, read-out: Pigweed plant response rating (0 to 100 scale); for pest or weed control at 500 g/ha: 500 g ai/ha
In short: as §1

[10] = test system: barnyardgrass (Echinochloa crus-galli); test: Test B flooded paddy test; details: Echinochloa crus-galli, 250 g ai/ha, Flood; 0 to 100 scale where 0 is no effect and 100 is complete control; read-out: Barnyardgrass plant response rating
In short: (§2)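 Rating scale 0–100 (visual, vs untreated controls) after a 13–15 d greenhouse period; application to the flood layer, 3 cm above soil and maintained; plants at 2-leaf stage when treated.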

[11] = test system: ducksalad (Heteranthera limosa); test: Test B flooded paddy test; details: Heteranthera limosa, 250 g ai/ha, Flood; 0 to 100 scale where 0 is no effect and 100 is complete control; read-out: Ducksalad plant response rating
In short: as §2

rice (Oryra sativa) = test: Test B flooded paddy test; details: Oryza sativa, 250 g ai/ha, Flood; 0 to 100 scale where 0 is no effect and 100 is complete control; read-out: Rice plant response rating
In short: as §2

[12] = test system: sedge, umbrella (small-flower umbrella sedge, Cyperus difformis); test: Test B flooded paddy test; details: Cyperus difformis, 250 g ai/ha, Flood; 0 to 100 scale where 0 is no effect and 100 is complete control; read-out: Sedge, Umbrella plant response rating
In short: as §2

Question: Which results are given for `CN1C[C@H](c2ccc(C(F)F)cc2)[C@@H](C(=O)Nc2ccc(F)c(F)c2F)C1=O` [Compound 1260]?
Answer: pest or weed control at 125 g/ha (Kochia (Kochia scoparia) [1]): 80%; pest or weed control at 500 g/ha (Kochia (Kochia scoparia) [1]): 90%; pest or weed control at 125 g/ha [2]: 90%; pest or weed control at 500 g/ha [2]: 100%; pest or weed control at 125 g/ha [3]: 90%; pest or weed control at 500 g/ha [3]: 90%; pest or weed control at 125 g/ha [4]: 90%; pest or weed control at 500 g/ha [4]: 90%; pest or weed control at 125 g/ha [5]: 80%; pest or weed control at 500 g/ha [5]: 90%; pest or weed control at 125 g/ha [6]: 50%; pest or weed control at 500 g/ha [6]: 60%; pest or weed control at 125 g/ha ([7]; postemergence): 70%; pest or weed control at 500 g/ha ([7]; Postemergence, visual injury, 0 to 100 scale (0 no effect, 100 complete control), approx. 10 d, read-out: Plant response rating, Galium): 70%; pest or weed control at 125 g/ha (Kochia (Kochia scoparia) [8]; postemergence): 60%; pest or weed control at 500 g/ha (Kochia (Kochia scoparia) [8]; Postemergence, visual injury, 0 to 100 scale (0 no effect, 100 complete control), approx. 10 d, read-out: Plant response rating, Kochia): 70%; plant injury at 125 g/ha (corn (Zea mays); postemergence): 90%; Corn plant response rating (crop injury, 0 = no effect, 100 = complete kill) at 500 g/ha (corn (Zea mays); Postemergence, 500 g ai/ha, visual injury, 0 to 100 scale (0 no effect, 100 complete control), approx. 10 d): 90%; pest or weed control at 125 g/ha ([9]; postemergence): 50%; pest or weed control at 500 g/ha ([9]; Postemergence, visual injury, 0 to 100 scale (0 no effect, 100 complete control), approx. 10 d, read-out: Plant response rating, Pigweed): 70%; pest or weed control at 250 g/ha [10]: 80%; pest or weed control at 250 g/ha [11]: 100%; pest or weed control at 250 g/ha (rice (Oryra sativa)): 50%; pest or weed control at 250 g/ha [12]: 0%

Question: For `CSc1ccccc1NC(=O)[C@H]1C(=O)N(C)CC[C@@H]1c1ccc(C(F)(F)F)cc1` [Compound 1227], which pest or weed control at 125 g/ha (Kochia (Kochia scoparia) [1]) is on record?
Answer: 0%

Question: What about the pest or weed control at 500 g/ha (Kochia (Kochia scoparia) [1]) of the same molecule?
Answer: 0%

Question: What about the pest or weed control at 125 g/ha [2] of the same molecule?
Answer: 0%

Question: And the pest or weed control at 500 g/ha [2]?
Answer: 40%

Question: What about the pest or weed control at 125 g/ha [3] of the same molecule?
Answer: 50%

Question: What about the pest or weed control at 500 g/ha [3] of the same molecule?
Answer: 90%

Question: And the pest or weed control at 125 g/ha [4]?
Answer: 30%

Question: And the pest or weed control at 500 g/ha [4]?
Answer: 60%

Question: And the pest or weed control at 125 g/ha [5]?
Answer: 0%

Question: And the pest or weed control at 500 g/ha [5]?
Answer: 0%

Question: And the pest or weed control at 125 g/ha [6]?
Answer: 20%

Question: And the pest or weed control at 500 g/ha [6]?
Answer: 70%

Question: And the pest or weed control at 125 g/ha ([7]; postemergence)?
Answer: 0%

Question: What about the pest or weed control at 500 g/ha ([7]; postemergence, 0 to 100 scale, 0 is no effect, 100 is complete control, read-out: Galium plant response rating) of the same molecule?
Answer: 0%

Question: And the pest or weed control at 125 g/ha (Kochia (Kochia scoparia) [8]; postemergence)?
Answer: 0%

Question: What about the pest or weed control at 500 g/ha (Kochia (Kochia scoparia) [8]; postemergence, 0 to 100 scale, 0 is no effect, 100 is complete control, read-out: Kochia plant response rating) of the same molecule?
Answer: 30%

Question: What about the plant injury at 125 g/ha (corn (Zea mays); postemergence) of the same molecule?
Answer: 0%

Question: And the plant injury at 500 g/ha (corn (Zea mays); 500 g ai/ha, postemergence, 0 to 100 scale, 0 is no effect, 100 is complete control, read-out: Corn plant response rating)?
Answer: 0%

Question: And the pest or weed control at 125 g/ha ([9]; postemergence)?
Answer: 20%

Question: What about the pest or weed control at 500 g/ha ([9]; postemergence, 0 to 100 scale, 0 is no effect, 100 is complete control, read-out: Pigweed plant response rating) of the same molecule?
Answer: 30%

Question: What about the pest or weed control at 250 g/ha [10] of the same molecule?
Answer: 0%

Question: And the pest or weed control at 250 g/ha [11]?
Answer: 80%

Question: What about the pest or weed control at 250 g/ha (rice (Oryra sativa)) of the same molecule?
Answer: 15%

Question: What about the pest or weed control at 250 g/ha [12] of the same molecule?
Answer: 0%
